Test results reported in patent US11319285B2, “N-acylated methionine sulfoxides as food flavouring compounds” (Givaudan S.A., priority 2015, dated 2022).

Experiments:
[1] = Expert taster comparison in a cheese sauce; conditions: 0.5 ppm in Maggie Saus Base with 0.05 g ethanol
Procedure: Samples were evaluated by expert tasters. Tasters were asked to describe the samples focusing on authentic taste, mouthfeel, fullness, salty-ness, salivation, umami, sweetness, juiciness, richness, long lastingness and fattiness.
Comparison in a Cheese Sauce
Base is a Maggie Saus Base with 0.05 g ethanol

[2] = Expert taster comparison in a cheese onion crisp; conditions: 10 ppb in crisp with proprietary cheese onion powder flavoring @ 6%
Procedure: (§1) Samples were evaluated by expert tasters. Tasters were asked to describe the samples focusing on authentic taste, mouthfeel, fullness, salty-ness, salivation, umami, sweetness, juiciness, richness, long lastingness and fattiness
Comparison in a Cheese Onion Crisp
Base is a crisp with proprietary cheese onion powder flavoring @ 6%

[3] = Expert taster comparison in UNOX 'Franse uiensoep' onion soup; conditions: 10 ppb in UNOX 'Franse uiensoep'
Procedure: as §1
Base is UNOX ‘Franse uiensoep’

[4] = Expert taster comparison in Campbell's French onion soup; conditions: 10 ppb in Campbell's French onion soup
Procedure: as §1
Base is Campbell's® French onion soup

Row | SMILES | taste description versus base [1] | taste description versus base [2] | taste description versus base [3] | taste description versus base [4]
1 | CCCCCCCC/C=C\CCCCCCCC(=O)N[C@H](C[S+](C)[O-])C(=O)O (stereo partly drawn) [(2S)-3-(methylsulfinyl)-2-oleamidopropanoic acid] | salt/umami/fullness/cheesiness level enhanced | – | – | –
2 | CCCCCCCC/C=C\CCCCCCCC(=O)N[C@@H](CC[S+](C)[O-])C(=O)O (stereo partly drawn) [Met-SO C18:1, (2S)-4-(methylsulfinyl)-2-oleamidobutanoic acid] | – | salt/taste level enhanced; onion character more fried | slightly stronger in salt; onion character increased | slightly stronger in salt; onion character slightly enhanced
